Tests used:
Test in all cases: relative viability (nuclei count vs DMSO), 5 days (fraction); higher = more cells survive
A-427 = system: A-427
In short: (§1)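 Relative viability equals treated-well nuclei counts divided by vehicle-well nuclei counts. Counts came from 4× images of lung cancer cell lines grown in 1536-well plates for 5 days after pin-tool dosing on the day after seeding. Dosing used one drug alone or a fixed anchor-drug dose plus five library-drug doses (not always all listed) in √10 steps, and values are medians of duplicate plates.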

COR-L 105 = system: COR-L 105
In short: as §1

EPLC-272H = system: EPLC-272H
In short: as §1

HCC-366 = system: HCC-366
In short: as §1

HCC-78 = system: HCC-78
In short: as §1

HOP-62 = system: HOP-62
In short: as §1

LC-2-ad = system: LC-2-ad
In short: as §1

LCLC-97TM1 = system: LCLC-97TM1
In short: as §1

LU99A = system: LU99A
In short: as §1

LXF-289 = system: LXF-289
In short: as §1

NCI-H1755 = system: NCI-H1755
In short: as §1

NCI-H1792 = system: NCI-H1792
In short: as §1

NCI-H1793 = system: NCI-H1793
In short: as §1

NCI-H1915 = system: NCI-H1915
In short: as §1

NCI-H1944 = system: NCI-H1944
In short: as §1

NCI-H1975 = system: NCI-H1975
In short: as §1

NCI-H2085 = system: NCI-H2085
In short: as §1

NCI-H2170 = system: NCI-H2170
In short: as §1

NCI-H358 = system: NCI-H358
In short: as §1

NCI-H460 = system: NCI-H460
In short: as §1

SK-LU-1 = system: SK-LU-1
In short: as §1

SW 900 = system: SW 900
In short: as §1

UMC-11 = system: UMC-11
In short: as §1

In the case of `O=C(O)c1ccc(-c2c[nH]c3ncc(-c4ccccc4)cc23)cc1C1CCCC1` + Nc1ncn([C@H]2C[C@H](O)[C@@H](CO)O2)c(=O)n1 [Decitabine] (partner 2 µM), the relative viability (A-427; first compound 0.04 µM) is reported as 0.59, the relative viability (A-427; first compound 0.1265 µM) is reported as 0.594 and the relative viability (A-427; first compound 0.4 µM) is reported as 0.5. For the same compound, the relative viability (A-427; first compound 1.265 µM) was 0.475, the relative viability (COR-L 105; first compound 0.04 µM) was 0.68 and the relative viability (COR-L 105; first compound 0.1265 µM) was 0.62. The relative viability (COR-L 105; first compound 0.4 µM) was 0.703, the relative viability (COR-L 105; first compound 1.265 µM) was 0.72 and the relative viability (EPLC-272H; first compound 0.04 µM) was 0.351. For the same compound, the relative viability (EPLC-272H; first compound 0.1265 µM) was 0.402, the relative viability (EPLC-272H; first compound 0.4 µM) was 0.388 and the relative viability (EPLC-272H; first compound 1.265 µM) was 0.277. It also gave a relative viability (HCC-366; first compound 0.04 µM) of 0.336, a relative viability (HCC-366; first compound 0.1265 µM) of 0.342 and a relative viability (HCC-366; first compound 0.4 µM) of 0.363. It also gave a relative viability (HCC-366; first compound 1.265 µM) of 0.3, a relative viability (HCC-78; first compound 0.1265 µM) of 0.862 and a relative viability (HCC-78; first compound 0.4 µM) of 0.859. The relative viability (HCC-78; first compound 1.265 µM) was 0.622, the relative viability (HOP-62; first compound 0.04 µM) was 0.166 and the relative viability (HOP-62; first compound 0.1265 µM) was 0.241. The relative viability (HOP-62; first compound 0.4 µM) was 0.203, the relative viability (HOP-62; first compound 1.265 µM) was 0.239 and the relative viability (LC-2-ad; first compound 0.04 µM) was 0.718. For the same compound, the relative viability (LC-2-ad; first compound 0.1265 µM) was 0.756, the relative viability (LC-2-ad; first compound 0.4 µM) was 0.737 and the relative viability (LC-2-ad; first compound 1.265 µM) was 0.651. It also gave a relative viability (LCLC-97TM1; first compound 0.04 µM) of 0.254, a relative viability (LCLC-97TM1; first compound 0.1265 µM) of 0.226 and a relative viability (LCLC-97TM1; first compound 0.4 µM) of 0.207. For the same compound, the relative viability (LCLC-97TM1; first compound 1.265 µM) was 0.195, the relative viability (LU99A; first compound 0.04 µM) was 0.88 and the relative viability (LU99A; first compound 0.1265 µM) was 0.837. The relative viability (LU99A; first compound 0.4 µM) was 0.822, the relative viability (LU99A; first compound 1.265 µM) was 0.576 and the relative viability (LXF-289; first compound 0.04 µM) was 0.352. It also gave a relative viability (LXF-289; first compound 0.1265 µM) of 0.355, a relative viability (LXF-289; first compound 0.4 µM) of 0.361 and a relative viability (LXF-289; first compound 1.265 µM) of 0.302. The relative viability (NCI-H1755; first compound 0.04 µM) was 0.699, the relative viability (NCI-H1755; first compound 0.1265 µM) was 0.753 and the relative viability (NCI-H1755; first compound 0.4 µM) was 0.713. The relative viability (NCI-H1755; first compound 1.265 µM) was 0.705, the relative viability (NCI-H1792; first compound 0.04 µM) was 0.515 and the relative viability (NCI-H1792; first compound 0.1265 µM) was 0.51. It also gave a relative viability (NCI-H1792; first compound 0.4 µM) of 0.543, a relative viability (NCI-H1792; first compound 1.265 µM) of 0.457 and a relative viability (NCI-H1793; first compound 0.04 µM) of 0.434. It also gave a relative viability (NCI-H1793; first compound 0.1265 µM) of 0.527, a relative viability (NCI-H1793; first compound 0.4 µM) of 0.519 and a relative viability (NCI-H1793; first compound 1.265 µM) of 0.334. The relative viability (NCI-H1915; first compound 0.04 µM) was 0.241, the relative viability (NCI-H1915; first compound 0.1265 µM) was 0.229 and the relative viability (NCI-H1915; first compound 0.4 µM) was 0.259. It also gave a relative viability (NCI-H1915; first compound 1.265 µM) of 0.251, a relative viability (NCI-H1944; first compound 0.04 µM) of 0.448 and a relative viability (NCI-H1944; first compound 0.1265 µM) of 0.437. For the same compound, the relative viability (NCI-H1944; first compound 0.4 µM) was 0.423, the relative viability (NCI-H1944; first compound 1.265 µM) was 0.402 and the relative viability (NCI-H1975; first compound 0.04 µM) was 0.393. The relative viability (NCI-H1975; first compound 0.1265 µM) was 0.447, the relative viability (NCI-H1975; first compound 0.4 µM) was 0.554 and the relative viability (NCI-H1975; first compound 1.265 µM) was 0.376. The relative viability (NCI-H2085; first compound 0.04 µM) was 0.588, the relative viability (NCI-H2085; first compound 0.1265 µM) was 0.548 and the relative viability (NCI-H2085; first compound 0.4 µM) was 0.56. The relative viability (NCI-H2085; first compound 1.265 µM) was 0.366, the relative viability (NCI-H2170; first compound 0.04 µM) was 0.459 and the relative viability (NCI-H2170; first compound 0.1265 µM) was 0.478. For the same compound, the relative viability (NCI-H2170; first compound 0.4 µM) was 0.437, the relative viability (NCI-H2170; first compound 1.265 µM) was 0.437 and the relative viability (NCI-H358; first compound 0.04 µM) was 0.193. The relative viability (NCI-H358; first compound 0.1265 µM) was 0.218, the relative viability (NCI-H358; first compound 0.4 µM) was 0.172 and the relative viability (NCI-H358; first compound 1.265 µM) was 0.115. For the same compound, the relative viability (NCI-H460; first compound 0.04 µM) was 0.521, the relative viability (NCI-H460; first compound 0.1265 µM) was 0.531 and the relative viability (NCI-H460; first compound 0.4 µM) was 0.468. It also gave a relative viability (NCI-H460; first compound 1.265 µM) of 0.459, a relative viability (SK-LU-1; first compound 0.04 µM) of 0.633 and a relative viability (SK-LU-1; first compound 0.1265 µM) of 0.587. The relative viability (SK-LU-1; first compound 0.4 µM) was 0.592, the relative viability (SK-LU-1; first compound 1.265 µM) was 0.508 and the relative viability (SW 900; first compound 0.04 µM) was 0.437. For the same compound, the relative viability (SW 900; first compound 0.1265 µM) was 0.456, the relative viability (SW 900; first compound 0.4 µM) was 0.38 and the relative viability (SW 900; first compound 1.265 µM) was 0.344. For the same compound, the relative viability (UMC-11; first compound 0.04 µM) was 0.653, the relative viability (UMC-11; first compound 0.1265 µM) was 0.565 and the relative viability (UMC-11; first compound 0.4 µM) was 0.497. It also gave a relative viability (UMC-11; first compound 1.265 µM) of 0.626.

From the supplement of paper PMC10307832
